From paper PMC10255489, “Targeting Anti-Inflammatory Pathways to Treat Diabetes-Induced Neuropathy by 6-Hydroxyflavanone” (Nutrients, 2023) come the findings set out here.

The target of one test is T1, cyclooxygenase-2 (COX-2) (Homo sapiens, UniProt P35354).
T1 construct: gene PTGS2
T1 sequence (P35354 18-604): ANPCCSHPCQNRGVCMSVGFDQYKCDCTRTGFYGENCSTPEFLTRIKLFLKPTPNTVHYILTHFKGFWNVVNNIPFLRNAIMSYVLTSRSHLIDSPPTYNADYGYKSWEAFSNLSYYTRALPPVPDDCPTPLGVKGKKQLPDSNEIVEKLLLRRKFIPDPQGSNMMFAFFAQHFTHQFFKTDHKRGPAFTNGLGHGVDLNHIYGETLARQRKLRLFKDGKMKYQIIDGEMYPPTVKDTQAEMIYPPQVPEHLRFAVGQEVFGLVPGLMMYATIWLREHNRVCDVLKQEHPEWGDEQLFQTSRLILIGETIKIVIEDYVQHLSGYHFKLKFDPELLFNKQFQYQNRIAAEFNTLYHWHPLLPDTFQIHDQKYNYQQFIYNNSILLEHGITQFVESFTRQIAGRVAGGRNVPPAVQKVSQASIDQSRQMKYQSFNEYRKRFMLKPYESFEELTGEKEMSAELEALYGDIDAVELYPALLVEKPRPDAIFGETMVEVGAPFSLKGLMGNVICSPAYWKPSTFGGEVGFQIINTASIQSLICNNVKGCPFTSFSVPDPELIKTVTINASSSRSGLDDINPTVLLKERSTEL
Briefly: colorimetric COX inhibitor screening assay (Cayman […]), human recombinant COX-2.

The next test deals with T2, 5-lipoxygenase (5-LOX) (Homo sapiens, UniProt P09917).
T2 construct: gene ALOX5
T2 sequence (P09917 1-674): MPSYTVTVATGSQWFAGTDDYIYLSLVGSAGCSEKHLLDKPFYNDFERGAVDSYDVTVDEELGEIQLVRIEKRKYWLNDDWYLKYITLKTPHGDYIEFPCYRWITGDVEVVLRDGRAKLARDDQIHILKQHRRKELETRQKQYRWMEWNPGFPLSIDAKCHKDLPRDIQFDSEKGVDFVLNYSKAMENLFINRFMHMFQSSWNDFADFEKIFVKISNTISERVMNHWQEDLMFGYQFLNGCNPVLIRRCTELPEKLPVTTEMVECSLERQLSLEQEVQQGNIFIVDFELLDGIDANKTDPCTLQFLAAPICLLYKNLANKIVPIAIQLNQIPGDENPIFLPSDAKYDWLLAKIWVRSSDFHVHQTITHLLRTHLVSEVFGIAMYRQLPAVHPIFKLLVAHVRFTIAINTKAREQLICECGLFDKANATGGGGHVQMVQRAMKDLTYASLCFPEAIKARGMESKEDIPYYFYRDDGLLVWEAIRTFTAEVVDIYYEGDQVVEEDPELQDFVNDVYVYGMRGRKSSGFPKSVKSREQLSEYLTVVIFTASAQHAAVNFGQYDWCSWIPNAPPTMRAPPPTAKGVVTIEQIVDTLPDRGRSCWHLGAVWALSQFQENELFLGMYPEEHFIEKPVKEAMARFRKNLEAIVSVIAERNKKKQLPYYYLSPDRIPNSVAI
Briefly: UV ([…] nm) linoleic acid to HPOD assay, human recombinant 5-LOX. It counts as biochemical.

Regarding `O=C1CC(c2ccccc2)Oc2ccc(O)cc21` (centres unmarked) [6-HF, 6-Hydroxyflavanone], the IC50 (usually the concentration that inhibits the measured activity by half) was found to be 21.9 µM at cyclooxygenase-2 (COX-2) and 36 µM on 5-lipoxygenase (5-LOX).
